Tested on: MCF-7 breast cancer cells
Test: Microarray gene expression analysis (Agilent whole human genome 4 x 44K; compound vs DMSO, LIMMA log2 fold change)
Format: cell-based
Conditions: Apoptosis genes

SMILES: Oc1cccc(-c2nc(N3CCOCC3)c3oc4ncccc4c3n2)c1 [PI-103]
- ITGB3BP log2FC (Gene 23421): 0.693
- RYBP log2FC (Gene 23429): 0.361
- HEY2 log2FC (Gene 23493): -0.116
- SCRIB log2FC (Gene 23513): 0.029
- CLCF1 log2FC (Gene 23529): -0.682
- PRAME log2FC (Gene 23532): -0.450
- DDAH2 log2FC (Gene 23564): 0.378
- ZNF346 log2FC (Gene 23567): -0.012
- CASP14 log2FC (Gene 23581): -0.041
- NUP62 log2FC (Gene 23636): -0.627
- PPP1R15A log2FC (Gene 23645): 0.513
- AIPL1 log2FC (Gene 23746): 0.177
- FKBP8 log2FC (Gene 23770): 0.044
- BCL2L13 log2FC (Gene 23786): 0.110
- MTCH1 log2FC (Gene 23787): 0.149
- NGEF log2FC (Gene 25791): 0.857
- SPDEF log2FC (Gene 25803): -0.186
- TNFAIP8 log2FC (Gene 25816): 0.677
- PRDX5 log2FC (Gene 25824): 0.047
- BRMS1 log2FC (Gene 25855): -0.476
- SIN3A log2FC (Gene 25942): 0.891
- HIGD1A log2FC (Gene 25994): -0.106
- SERBP1 log2FC (Gene 26135): 0.167
- NOC2L log2FC (Gene 26155): -0.855
- TIAM2 log2FC (Gene 26230): 0.365
- AATF log2FC (Gene 26574): -0.415
- GREM1 log2FC (Gene 26585): -0.405
- CKAP2 log2FC (Gene 26586): 0.629
- CYFIP2 log2FC (Gene 26999): 0.053
- NGFRAP1 log2FC (Gene 27018): 0.277
- ANKRD1 log2FC (Gene 27063): 0.350
- GHITM log2FC (Gene 27069): 0.386
- BBC3 log2FC (Gene 27113): 2.072
- CIDEB log2FC (Gene 27141): -0.033
- GLS2 log2FC (Gene 27165): 0.410
- TNFRSF21 log2FC (Gene 27242): -1.071
- PDCD4 log2FC (Gene 27250): 1.703
- KLHL20 log2FC (Gene 27252): 0.115
- CECR2 log2FC (Gene 27443): -0.150
- DBNL log2FC (Gene 28988): -0.248
- HIPK2 log2FC (Gene 28996): -0.140
- SAP30BP log2FC (Gene 29115): -0.468
- LGALS13 log2FC (Gene 29124): -0.059
- CARD10 log2FC (Gene 29775): -0.449
- SENP1 log2FC (Gene 29843): 0.227
- TFPT log2FC (Gene 29844): -0.472
- PNMA3 log2FC (Gene 29944): 0.668
- UBQLN1 log2FC (Gene 29979): -0.069
- ERO1L log2FC (Gene 30001): 0.078
- SH3KBP1 log2FC (Gene 30011): 0.268
- KCNIP3 log2FC (Gene 30818): 0.232
- RRM2B log2FC (Gene 50484): 0.526
- G0S2 log2FC (Gene 50486): -0.054
- NOX4 log2FC (Gene 50507): 0.041
- CHST11 log2FC (Gene 50515): -0.946
- ARHGEF4 log2FC (Gene 50649): 0.008
- ARHGEF3 log2FC (Gene 50650): 0.506
- GLRX2 log2FC (Gene 51022): -0.261
- RPS27L log2FC (Gene 51065): 0.277
- APIP log2FC (Gene 51074): 0.039
- NDUFA13 log2FC (Gene 51079): -0.041
- GAL log2FC (Gene 51083): -0.333
- SH3GLB1 log2FC (Gene 51100): 0.561
- APH1A log2FC (Gene 51107): -0.371
- UTP11L log2FC (Gene 51118): -0.906
- IER3IP1 log2FC (Gene 51124): 0.357
- ANGPTL4 log2FC (Gene 51129): -0.819
- ING4 log2FC (Gene 51147): 1.595
- LEF1 log2FC (Gene 51176): -0.888
- BFAR log2FC (Gene 51283): 0.201
- PLAC8 log2FC (Gene 51316): -0.057
- TNFRSF12A log2FC (Gene 51330): -0.619
- ANGPT4 log2FC (Gene 51378): 0.049
- DDX41 log2FC (Gene 51428): -0.065
- GULP1 log2FC (Gene 51454): 1.663
- TRIAP1 log2FC (Gene 51499): -0.858
- ZC3HC1 log2FC (Gene 51530): 0.156
- PIAS4 log2FC (Gene 51588): -0.121
- PIGT log2FC (Gene 51604): 0.362
- TAF9B log2FC (Gene 51616): 0.327
- PTRH2 log2FC (Gene 51651): -0.374
- WWOX log2FC (Gene 51741): -0.808
- SIX4 log2FC (Gene 51804): 0.497
- IL20RA log2FC (Gene 53832): 0.039
- CYCS log2FC (Gene 54205): -0.602
- WNT4 log2FC (Gene 54361): -0.419
- DNAJC10 log2FC (Gene 54431): 0.610
- ZFAND6 log2FC (Gene 54469): 0.333
- ADAMTSL4 log2FC (Gene 54507): -0.373
- DDIT4 log2FC (Gene 54541): -1.201
- ING3 log2FC (Gene 54556): 0.724
- RRN3 log2FC (Gene 54700): -0.333
- AHI1 log2FC (Gene 54806): 0.380
- QRICH1 log2FC (Gene 54870): 0.076
- TMEM161A log2FC (Gene 54929): -0.337
- PHIP log2FC (Gene 55023): 1.071
- USP47 log2FC (Gene 55031): 0.614
- OXR1 log2FC (Gene 55074): 0.376
- UACA log2FC (Gene 55075): 0.829
- IFT57 log2FC (Gene 55081): 0.433
- XKR8 log2FC (Gene 55113): 0.252
- SHQ1 log2FC (Gene 55164): -0.188
- FAIM log2FC (Gene 55179): 0.119
- MAP1S log2FC (Gene 55201): -0.149
- ATAD3A log2FC (Gene 55210): -0.126
- STEAP3 log2FC (Gene 55240): -0.441
- RHOT1 log2FC (Gene 55288): 0.535
- RFK log2FC (Gene 55312): 0.631
- PARL log2FC (Gene 55486): -0.181
- TNFRSF19 log2FC (Gene 55504): -0.091
- CCAR1 log2FC (Gene 55749): 0.552
- PCID2 log2FC (Gene 55795): 0.323
- RNF130 log2FC (Gene 55819): 0.00747
- EAF2 log2FC (Gene 55840): 0.144
- PSENEN log2FC (Gene 55851): -0.013
- BCAP29 log2FC (Gene 55973): 0.083
- TEX11 log2FC (Gene 56159): 0.000672
- CTNNBL1 log2FC (Gene 56259): -0.138
- DIABLO log2FC (Gene 56616): -0.156
- ASAH2 log2FC (Gene 56624): -0.210
- TRIM39 log2FC (Gene 56658): -0.128
- BARHL1 log2FC (Gene 56751): -0.298
- FMN2 log2FC (Gene 56776): 0.00262
- SPHK2 log2FC (Gene 56848): -0.341
- C8orf4 log2FC (Gene 56892): 0.00123
- MEIS3 log2FC (Gene 56917): -0.122
- DUSP22 log2FC (Gene 56940): 0.209
- CIAPIN1 log2FC (Gene 57019): -0.420
- PCBP4 log2FC (Gene 57060): -0.275
- AVEN log2FC (Gene 57099): -0.638
- CAMK1D log2FC (Gene 57118): -0.189
- RTN4 log2FC (Gene 57142): -0.088
- PAK7 log2FC (Gene 57144): 0.451
- BIRC6 log2FC (Gene 57448): 0.144
- TAOK1 log2FC (Gene 57551): 0.399
- SEMA6A log2FC (Gene 57556): 0.047
- SH3RF1 log2FC (Gene 57630): -0.495
- USP28 log2FC (Gene 57646): 0.030
- GPAM log2FC (Gene 57678): -0.052
- CHD8 log2FC (Gene 57680): -0.161
- TRIB3 log2FC (Gene 57761): 0.076
- NGB log2FC (Gene 58157): -0.260
- RBM25 log2FC (Gene 58517): 0.334
- SAV1 log2FC (Gene 60485): 0.586
- PROK2 log2FC (Gene 60675): -0.058
- ELMO2 log2FC (Gene 63916): 0.585
- CIDEC log2FC (Gene 63924): 0.292
- FIGNL1 log2FC (Gene 63979): -0.235
- PERP log2FC (Gene 64065): 0.731
- MOAP1 log2FC (Gene 64112): 0.507
- RRAGC log2FC (Gene 64121): 1.556
- IFIH1 log2FC (Gene 64135): 0.872
- ZMAT3 log2FC (Gene 64393): -0.151
- ATG3 log2FC (Gene 64422): 0.194
- SUDS3 log2FC (Gene 64426): -0.027
- MICAL1 log2FC (Gene 64780): -0.125
- PLEKHG2 log2FC (Gene 64857): -0.516

From article PMC4303209, “A novel phosphatidylinositol 3-kinase (PI3K) inhibitor directs a potent FOXO-dependent, p53-independent cell cycle arrest phenotype characterized by the differential induction of a subset of FOXO-regulated genes” (Breast Cancer Research : BCR, 2014)
